Laboratory results reported in US20140303145A1, “PHARMACEUTICAL COMPOSITION COMPRISING A POORLY WATER-SOLUBLE ACTIVE INGREDIENT, A SURFACTANT AND A WATER-SOLUBLE POLYMER” (NOVARTIS AG, priority 2001, published 2014).

Legend:
Format in all cases: physicochemical
[1] = Water solubility of PKC412
Method: (water solubility: <0.1 mg/l), which is referred to hereinafter as PKC412.

[2] = Dissolution behaviour of capsules (Paddle method USP XXIV, SIFmod); details: based on a 25 mg dosage; 1 litre SIFmod pH 6.8; capsule test
Method: (§1) The medium used for the dissolution behaviour test is 1 litre of a surfactant-free, modified medium according to “Intestinal Fluid, Simulated, TS” from USP XXIV (SIFmod). KH2PO4 is replaced by NaH2PO4. Pancreatin is not added (pH 6.8).
The dissolution test is carried out according to the “Paddle method” of USP XXIV at 37° C. and at a stirring rate of 50 rpm with a Sotax AT6 (Sotax, Basle, Switzerland). The capsules are placed in a teflon-coated sinker (ATN, Pfaffenheim, France), in order to allow them to remain on the bottom of the dissolution container.
The average amounts of active ingredient released from each of 3 capsules of 25 mg PKC412 according to examples C1 and C2 are given in Table 7 as a percentage of the theoretical content.

[3] = Dissolution behaviour of tablets (Paddle method USP XXIV, SIFmod); details: based on a 25 mg dosage; 1 litre SIFmod pH 6.8; tablet test
Method: as §1
The dissolution test is carried out according to the “Paddle method” of USP XXIV at 37° C. and at a stirring rate of 50 rpm with a Sotax AT6 (Sotax, Basle, Switzerland). The tablets were added and the amounts of active ingredient released were analysed.
The average amounts of active ingredient released from each of 3 tablets of 25 mg PKC412 according to examples C4-C6 are given in Table 8 as a percentage of the theoretical content.

solubility [1]: < 0.1 µg/mL
comparable solubility of untreated PKC412 [2]: < 0.4 % of the theoretical content
comparable solubility of untreated PKC412 [3]: < 0.4 % of the theoretical content
SMILES: CO[C@@H]1[C@H](N(C)C(=O)c2ccccc2)C[C@H]2O[C@]1(C)n1c3ccccc3c3c4c(c5c6ccccc6n2c5c31)C(=O)NC4 [PKC412]
